Data from patent US12076312B2, “Repurposing anti-androgen therapy for COVID-19 and immunotherapy” (Wisconsin Alumni Research Foundation, priority 2021, dated 2024).

Legend:
[1] = test system: AR mRNA in A549 lung cancer cells; test: AR mRNA level by qRT-PCR; type: cell-based
Protocol: (§1) From two independent biological experiments with 3 replicates (n=6), RNA samples were collected with TRIzol reagent (Invitrogen) and isolated using RNeasy Mini Kit (Qiagen). RNA concentrations were measured using A260 nm/A280 nm spectroscopy on the Nanodrop ND-1000 (Thermo-scientific). For each RNA sample, 1000 ng of RNA was reversed transcripted into first-strand cDNA using the High-Capacity RNA-to-cDNA Kit (Applied Biosystems).
(§2) Three independent biological replicates of mRNA samples were collected for each condition, and three technical replicates were run for each sample in qRT-PCR. The fold changes and p-values were calculated with the ΔΔCt method32 and two-sample t-test, respectively. Ubiquitin C (UBC) was used as the housekeeping gene for normalization.

[2] = test system: AR mRNA in NCI-H2228 lung cancer cells; test: AR mRNA level by qRT-PCR; type: cell-based
Protocol: as §1, §2

[3] = test system: AR responsive genes in A549 cells; test: AR signaling gene panel qRT-PCR; type: cell-based; settings: A549, enzalutamide 5 μM, 24 h
Protocol: as §1
(§3) Changes in expression levels of AR signaling genes were screened using Bio-Rad's PrimePCR pathway 384-well panel: Androgen Receptor Signaling SAB target list (Cat #10047228) and Androgen Receptor Nuclear Signaling (Cat #10025068). […] Two independent biological replicates of mRNA samples were collected for each condition, and one reaction was run for each sample. If necessary, additional technical replicates were run to rule out any outlier. Relative mRNA expressions and p-values were calculated using the ΔΔCt method and two-sample t-test in Bio-Rad CFX Maestro program (version: 4.0.2325.0418). […] The stabilities of housekeeping genes were checked using the geNorm algorithm provided in CFX Maestro. M values of all housekeeping genes used in this study are less than 0.5, which is considered ideal. Log 2-transformed expression levels and −log 10 (p-value) of all treatment groups were plotted as Bubble and Color map graph in the Origin 2020 software.

[4] = test system: AR responsive genes in NCI-H2228 cells; test: AR signaling gene panel qRT-PCR; type: cell-based; settings: NCI-H2228, enzalutamide 5 μM, 24 h (FIG. 2C)
Protocol: as §1, §3

[5] = target: AR (Homo sapiens, UniProt P10275); settings: cited from earlier work
[6] = target: mutant AR forms (F877L mutation) (Homo sapiens, UniProt P10275, F877L); settings: F877L mutation that confers resistance to enzalutamide; cited from earlier work
[7] = test system: AR protein translocation in A549; test: AR immunofluorescent imaging, nuclear translocation; settings: A549, 1 nM R1881, 24 h
Protocol: (§4) After incubating in blocking buffer (5% normal goat serum and 0.2% fish skin gelatin in 0.2% Tween/PBS) for 1 hour at room temperature, the cells were stained with primary antibodies overnight at 4° C. […] Immunofluorescence images were captured on Leica TCS WLL SP8 Laser scanning confocal microscopy (Leica Microsystems) using 63× oil immersion objective (Scale bar: 10 μm). Multiple images were taken at different fields of coverslip to obtain at least 100 cells for AR quantification. The sum of pixel intensities of AR signal within the nucleus and cytoplasm was quantified using a custom MATLAB program (R2017b, MathWorks). Briefly, the program utilized the actin and DRAQ5 channels to create masks for the cytoplasm and nucleus regions, respectively. These masks were then used to determine the AR signal within cytoplasm and nucleus, and the nucleus-to-cytoplasm ratio of AR signal was calculated by dividing the AR signal inside the nucleus by the AR signal within the entire cell (nucleus and cytoplasm).

[8] = test system: AR protein translocation in H2228; test: as above; settings: H2228, 1 nM R1881, 24 h
Protocol: as §4

Sequence of mutant AR forms (F877L mutation) (P10275 whole entry F877L): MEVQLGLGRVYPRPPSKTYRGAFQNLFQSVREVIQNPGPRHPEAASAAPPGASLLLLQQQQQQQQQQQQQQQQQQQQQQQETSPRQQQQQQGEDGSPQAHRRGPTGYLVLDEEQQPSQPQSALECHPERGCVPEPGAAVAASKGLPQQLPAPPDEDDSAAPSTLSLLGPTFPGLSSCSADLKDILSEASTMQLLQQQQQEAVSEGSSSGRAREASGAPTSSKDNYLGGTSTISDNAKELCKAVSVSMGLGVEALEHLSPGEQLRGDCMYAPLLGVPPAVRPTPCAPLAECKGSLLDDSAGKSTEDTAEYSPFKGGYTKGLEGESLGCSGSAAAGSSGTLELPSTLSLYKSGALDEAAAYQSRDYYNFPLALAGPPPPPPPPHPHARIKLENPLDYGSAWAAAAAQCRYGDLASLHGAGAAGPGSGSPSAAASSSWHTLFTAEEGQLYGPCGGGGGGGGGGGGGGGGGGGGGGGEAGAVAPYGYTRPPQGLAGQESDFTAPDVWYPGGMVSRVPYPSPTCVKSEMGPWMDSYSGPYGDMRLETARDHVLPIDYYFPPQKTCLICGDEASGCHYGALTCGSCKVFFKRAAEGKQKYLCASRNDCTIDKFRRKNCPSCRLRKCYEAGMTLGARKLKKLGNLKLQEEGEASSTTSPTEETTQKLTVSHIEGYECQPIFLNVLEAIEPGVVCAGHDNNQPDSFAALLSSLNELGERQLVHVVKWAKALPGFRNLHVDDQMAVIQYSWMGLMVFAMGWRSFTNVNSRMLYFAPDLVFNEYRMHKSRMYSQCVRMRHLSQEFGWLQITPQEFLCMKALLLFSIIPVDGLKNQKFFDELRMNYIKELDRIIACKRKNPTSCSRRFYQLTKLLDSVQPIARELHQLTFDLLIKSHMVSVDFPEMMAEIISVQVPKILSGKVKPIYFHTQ
Sequence of AR (P10275 whole entry): as the sequence (P10275 whole entry F877L) above, with L877F counted along it

CNC(=O)c1ccc(N2C(=S)N(c3ccc(C#N)c(C(F)(F)F)c3)C(=O)C2(C)C)cc1F [enzalutamide]
AR expression ([1]; A549, enzalutamide without ligand stimulation): increased AR expression | R1881-induced downregulation of AR expression ([1]; male A549, pre-treatment with enzalutamide 30 min before 1 nM R1881): blocked | AR expression ([2]; H2228, enzalutamide without ligand stimulation): increased AR expression | FOS expression log 2FC ([3]; p-value=0.008): −1.627 log 2FC | IL6 expression log 2FC ([3]; p-value=0.023): −2.41 log 2FC | MAF expression log 2FC ([3]; p-value=0.035): 2.44 log 2FC | IL6 expression [4]: significantly upregulated

CC(O)c1cc(C(=O)N[C@@H](C)Cn2ccc(-c3ccc(C#N)c(Cl)c3)n2)[nH]n1 (stereo partly shown) [Darolutamide]
greater affinity for AR compared with enzalutamide [5]: 8 fold | activity against mutant AR forms [6]: Remains antagonistic

C[C@]1(O)CC[C@H]2[C@@H]3CCC4=CC(=O)CCC4=C3C=C[C@@]21C [R1881, Metribolone]
AR transport to the nucleus [7]: efficiently transported to the nucleus | AR mRNA level ([1]; male A549, R1881 1 nM, 2, 4, 8 and 24 h vs control): temporally downregulated | AR expression ([2]; female H2228, androgen (R1881) stimulation): minimal changes | AR transport to the nucleus [8]: efficiently transported to the nucleus
